Experimental data: US10154990B2, “Medicaments for the treatment or prevention of fibrotic diseases” (Boehringer Ingelheim International GmbH, priority 2004, dated 2018)

Legend:
fibrotic marker genes = experiment: Expression of fibrotic marker genes in lung following bleomycin-induced pulmonary fibrosis (real time PCR); type: in vivo, Male Wistar rats; conditions: bleomycin-treated rats, daily 50 mg/kg, days 1-21, real time PCR normalized to 18S
Procedure: (B) Effect of a Representative Compound on Expression of Fibrotic Marker Genes Following Bleomycin-induced Pulmonary Fibrosis.
One part of the frozen lung tissue dedicated to investigation of gene expression was cut into small pieces using a sterile scalpel blade. Approximately 100 mg of tissue was then placed into a 2 ml Eppendorf tube and 1.5 ml of Trizol (Invitrogen) was added. A sterile tungsten carbide bead (Qiagen) was then added to the tube and the tube was placed in a Retsch MM300 Tissue disruptor (Qiagen) at a frequency of 30.0 Hz for 8 minutes. After this time, the bead was removed and the sample centrifuged at 12000 rpm for 10 minutes to remove tissue debris. The RNA was extracted using a modified version of the manufacturer's protocol supplied with Trizol. […] The concentration of each sample was then measured using a spectrophotometer. […]
Real Time PCR was carried out in 25 μl reactions, using 25 ng (5 μl) of cDNA per reaction. A quantitative PCR core kit was purchased (Eurogentec) and a master-mix was made up as follows for 100 reactions: 500 μl 10× reaction buffer, 500 μl MgCl2 (50 mM), 200 μl dNTP mix solution (5 mM), 25 μl Hot Goldstar enzyme, 75 μl 18S PDAR, 22.5 μl forward primer, 22.5 μl reverse primer, 15 μl probe and […] DEPC treated water. […]
In order to quantify the gene expression, a standard curve was constructed for each primer set and was included on each plate. […]

[1] = system: Bleomycin-induced Pulmonary Fibrosis; experiment: Lung morphology following bleomycin-induced pulmonary fibrosis (histology, Masson's Trichrome); type: in vivo, Male Wistar rats; conditions: bleomycin-treated rats (10 U/kg intratracheal), daily oral treatment with 50 mg/kg, days 1-21, lungs removed 21 days after instillation
Procedure: (A) Effect of a Representative Compound on Lung Morphology Following Bleomycin-induced Pulmonary Fibrosis. Bleomycin sulfate (Bleomycin […]) was purchased from a local pharmacy. All experiments were performed in accordance with German guidelines for animal welfare, performed by persons certified to work with animals and approved by the responsible authorities. Male Wistar rats were intratracheally injected with Bleomycin sulfate (10U/kg body weight in 300 μl saline) or saline alone (saline control) using a catheter (0.5 mm internal diameter, 1.0 mm external diameter) through the nasal passage, following exposure to the anaesthetic Isofluorane for 5 minutes. The following day, the rats were orally treated with Example A (compound (m)) or saline suspended in 1 ml 0.1% Natrosol. Control rats were administered 1 ml 0.1% Natrosol (vehicle control). [table] 21 days following bleomycin instillation, the rats were killed with a lethal intraperitoneal injection of NarcorenTM (Pentobarbital Sodium, Rhone Merieux). The lungs were then removed, blotted dry and half was snap frozen in liquid nitrogen and stored at -80° C. The other half was fixed in 4% formalin for subsequent paraffin embedding and histology. […] Collagen deposition was assessed using Masson's Trichrome staining. […]

Compound	melting point [°C]	lung fibrosis (lung morphology, collagen deposition by Masson's Trichrome staining) [1]	also measured
COC(=O)c1ccc2c(c1)NC(=O)/C2=C(\Nc1ccc(N(C)C(=O)CN(C)C)c(C#N)c1)c1ccccc1 [(v), 3-Z-[1-(3-cyano-4-(N-dimethylaminomethylcarbonyl-N-methyl-amino)-anilino)-1-phenyl-methylene]-6-methoxycarbonyl-2-indolinone]	163 to 165	–	–
COC(=O)c1ccc2c(c1)NC(=O)/C2=C(\Nc1ccc(N(C)C(=O)CN(C)C)c(OC)c1)c1ccccc1 [(w), 3-Z-[1-(3-methoxy-4-(N-dimethylaminomethylcarbonyl-N-methyl-amino)-anilino)-1-phenyl-methylene]-6-methoxycarbonyl-2-indolinone]	160 to 163	–	–
COC(=O)c1ccc2c(c1)NC(=O)/C2=C(\Nc1ccc(N(C)C(=O)CN)cc1)c1ccccc1 [(x), 3-Z-[1-(4-(N-aminomethylcarbonyl-N-methyl-amino)-anilino)-1-phenyl-methylene]-6-methoxycarbonyl-2-indolinone]	221	–	–
COC(=O)c1ccc2c(c1)NC(=O)/C2=C(\Nc1ccc(N(C)C(=O)C(N)(CCO)CCO)cc1)c1ccccc1 [(z), 3-Z-[1-(4-(N-(di-(2-hydroxy-ethyl)-amino-methylcarbonyl)-N-methyl-amino)-anilino)-1-phenyl-methylene]-6-methoxycarbonyl-2-indolinone]	199 to 202	–	–
COC(=O)c1ccc2c(c1)NC(=O)/C2=C(\Nc1ccc(N(C)C(=O)CN(C)C)cc1)c1ccccc1 [Compound (m), 3-Z-[1-(4-(N-dimethylaminomethylcarbonyl-N-methyl-amino)-anilino)-1-phenyl-methylene]-6-methoxycarbonyl-indolinone]	–	consistent, nearly complete reversal of lung fibrosis	expression of fibrotic marker genes (procollagen I, fibronectin) in the lung (fibrotic marker genes; FIGS. 2 and 3, vs bleomycin + vehicle): significant (p≤0.0001) inhibition
COC(=O)c1ccc2c(c1)NC(=O)/C2=C(\Nc1ccc(N(C)C(=O)CN2CCN(C)CC2)cc1)c1ccccc1 [Compound (u), 3-Z-[1-(4-(N-((4-methyl-piperazin-1-yl)-methylcarbonyl)-N-methyl-amino)-anilino)-1-phenyl-methylene]-6-methoxycarbonyl-2-indolinone]	–	consistent, nearly complete reversal of lung fibrosis	expression of fibrotic marker genes (procollagen I, TGFb) in the lung (fibrotic marker genes; FIGS. 5 and 6, vs bleomycin + vehicle): significant (p≤0.0001) inhibition
